The target in this experiment is T1, Gag-Pol polyprotein [588-1027]/[588-1147] (Human immunodeficiency virus 1, UniProt P04585).
T1 construct: 588-1027; 588-1147
The experiment can be described thus: HIV-1 RT Assay. To be noted: pH 7.9.

Where only a bound is given, the exact number is not on record here.

`COC(=O)c1cc(C(=CC(=O)O)c2cc(Cl)c(OC)c(C(=O)OC)c2)cc(Cl)c1OC` [3,3-Dichloro-4,4-dimethoxy-5,5-bis(methoxycarbonyl)-3,3-diphenylpropenoic Acid] yielded an IC50 of over 100 µM. With `CC1(C)OC(=O)c2cc(C(=CCCBr)c3cc(Cl)c4c(c3)C(=O)OC(C)(C)O4)cc(Cl)c2O1` [6-[4-bromo-1-(8-chloro-2,2-dimethyl-4-oxo-2,4-dihydro-1,3-benzodioxin-6-yl)but-1-en-1-yl]-8-chloro-2,2-dimethyl-2,4-dihydro-1,3-benzodioxin-4-one], the IC50 is over 100 µM.

`CC1(C)OC(=O)c2cc(C(=CCCO)c3cc(Cl)c4c(c3)C(=O)OC(C)(C)O4)cc(Cl)c2O1` [8-chloro-6-[1-(8-chloro-2,2-dimethyl-4-oxo-2,4-dihydro-1,3-benzodioxin-6-yl)-4-hydroxybut-1-en-1-yl]-2,2-dimethyl-2,4-dihydro-1,3-benzodioxin-4-one] came in with an IC50 of over 100 µM.

The compound `COC=C(c1cc(Br)c(OC)c(C(=O)OC)c1)c1cc(Br)c(OC)c(C(=O)OC)c1` [Alkenyldiarylmethane (ADAM) 5] had a 50% inhibitory concentration (IC50) of over 100 µM.

The compound `COC(=O)c1cc(C(=CCCCC(=O)O)c2cc(Cl)c(OC)c(C(=O)OC)c2)cc(Cl)c1OC` [Alkenyldiarylmethane (ADAM) 25] had an IC50 of over 100 µM. For `COc1c(Cl)cc(C(=CCCCC(=O)O)c2cc(Cl)c(OC)c(C(=O)O)c2)cc1C(=O)O` [Alkenyldiarylmethane (ADAM) 26] the value was over 100 µM.

On to `COc1c(Cl)cc(C(=CCC(=O)O)c2cc(Cl)c(OC)c(C(=O)O)c2)cc1C(=O)O` [Alkenyldiarylmethane (ADAM) 27], for which the IC50 is over 100 µM.

Compound `C=C(c1cc(Br)c(OC)c(C(=O)OC)c1)c1cc(Br)c(OC)c(C(=O)OC)c1` [methyl 3-bromo-5-{1-[3-bromo-4-methoxy-5-(methoxycarbonyl)phenyl]ethenyl}-2-methoxybenzoate] returned an IC50 of over 100 µM. Take `COC(=O)c1cc(C(=CCCO)c2cc(Cl)c(OC)c(C(=O)OC)c2)cc(Cl)c1OC` [methyl 3-chloro-5-{1-[3-chloro-4-methoxy-5-(methoxycarbonyl)phenyl]-4-hydroxybut-1-en-1-yl}-2-methoxybenzoate]: the concentration for half-maximal inhibition (IC50) is over 100 µM. Regarding `COC(=O)c1cc(C(=CC(=O)OC(C)(C)C)c2cc(Cl)c(OC)c(C(=O)OC)c2)cc(Cl)c1OC` [methyl 5-[3-(tert-butoxy)-1-[3-chloro-4-methoxy-5-(methoxycarbonyl)phenyl]-3-oxoprop-1-en-1-yl]-3-chloro-2-methoxybenzoate], the IC50 is over 100 µM.

(Values after BindingDB's records for doi:10.1021/jm9800595 (Purdue University, 1998).)
